Reference: patent publication US9688989B2, “H4 receptor inhibitors for treating tinnitus” (SENSORION, priority 2012, dated 2017)

Experiments:
[1] = test system: spiral ganglion neurons (SGNs); assay: Whole-cell current-clamp recordings of step-evoked action potentials in dissociated spiral ganglion neurons; type: cell-based, Wistar rats; details: for inhibition at 0.1 µM / inhibition at 100 µM: Rattus norvegicus, Neuron, read-out: inhibition of frequency of A.P firing; for inhibition at 0.1 µM / resting membrane potential, difference versus control: 100 nM; for amplitude of the first spike / frequency of spikes and amplitude of the first spike: transient spikers SGNs; for inhibition at 100 µM / amplitude of the first spike: 100 μM; for frequency of spikes and amplitude of the first spike: all concentration tested
Procedure: The head of 5-8 days old Wistar rats (CERJ, Le Genest, Berthevin, France) was hemi-sectioned aseptically and the cochlea dissected from the temporal bone. In L15 (Leibovitz) medium (Gibco) medium, the cochlear bone was gently removed using fine forceps to isolate the sensorineural tissue. The spiral ganglion was separated from the organ of Corti just before the habenula perforata, and enzymatically (collagenase 0.75 mg·mL^−1, dispase 1 mg·mL^−1 and DNAse 0.75 mg·mL^−1) dissociated for 15 min at 25° C. After washing thoroughly with a Tyrode's solution (Sigma), a transfer pipette was used to gently dissociate the ganglion neurons in culture medium (DMEM/F-12 medium 1:1, 2% N2 nutrient, 28 mM Glc, 1.5 mM Gln, 15 mM HEPES, 2 μM AraC, 10 ng mL-1 BDNF and 1% penicillin/streptomycin). The spiral ganglion neurons were plated onto culture dishes previously coated with 10 ug·mL-1 laminin (Sigma). These low density cultures were maintained at 37° C. in 5% CO2 for 3 to 5 days prior whole cell patch-clamp experiments.
Efficacy of H4R antagonist has been tested using two patch clamp technics: whole-cell current-clamp recordings with dissociated spiral ganglion neurons (SGNs) and loose-patch recordings for SGNs in semi-intact cochlea preparations. For these experiments postnatal day (P) 10-14 Wistar rats were used at DIV2-5.
All experiments were performed using an Axopatch 200B amplifier. Traces were low-pass filtered at 10-20 kHz, and digitized at 100 kHz with a Digidata 1440A board. Data were stored with PClamp10.2 software (Axon Instruments; Molecular Devices Corp., USA) and were analyzed off-line using Clampfit 10.2 (Molecular Devices) and Origin 8 (OriginLab) softwares.
The recording solution contained (in mM): NaCl 135, HEPES 10, glucose 10, MgCl2 1, KCl 5, and CaCl2 2.5, (pH 7.35). For whole-cell patch clamp recordings, recording glass pipettes (4-6 MΩ) were coated with Wax to reduce pipette capacitance and were filled with (in mM): KCl 135, HEPES 10, glucose 10, NaCl 5, EGTA 5, Mg-ATP 3, GTP-Na 1, pH 7.35. For these solutions a minor 3.7 mV liquid junction potential could be measured but membrane voltages were not corrected for it. The osmolarity of all solutions was adjusted to 300 mOsm/L. The control and test solutions were applied using a multiple capillary perfusion system (flow rate˜500 μl/min). After each application of the tested drug, the cells were washed with control buffer.
Recordings were performed at room temperature (RT; 22-25° C.). In dissociated neurons, a 150-200 pA DC square current (1 s duration) was applied every 6 s in order to elicit trains of action potentials. The pharmacological tests were conducted only when recordings presented the following criteria: series resistance (<10 MΩ on average) no more than 3 times the pipette resistance, stable resting membrane potential (R.M.P) negative to −40 mV, overshooting action potentials (magnitude >60 mV for the first action potential), stable firing for up to a minute in control condition.
Two concentrations have been tested: 100 μM and 100 nM.
Typically, in dissociated SGNs, (FIG. 2A1) small depolarizing current steps (0.1 nA-0.4 nA) evoked two types of action potential discharge: transient (no more than 1-2 spikes-rapidly adapting neurons) and sustained firing (number of spikes increasing linearly above threshold-slowly adapting neurons) (FIG. 2A2). Transient spikers SGNs represented the majority of neurons in our cell cultures (80% versus 20% of sustained spikers neurons).

[2] = test system: tinnitus induced by sodium salicylate or noise exposure; assay: Gap-Prepulse Inhibition of Acoustic Startle (GPIAS) behavioral model of tinnitus; type: in vivo, adult rats; details: rats, single i.p. administration, versus pre-treatment or vehicle
Procedure: The aim of these in vivo tests is to measure the efficacy of H4R antagonists to decrease (transient and permanent) tinnitus symptoms induced either by sodium salicylate or by high level noise exposure. Evaluation of efficacy is performed in adult rats using the tinnitus test developed by Turner et al. 2006: the Gap-Prepulse Inhibition of Acoustic Startle (GPIAS) behavioral model. This model uses a gap in a constant acoustic background as a pre-stimulus that reduces the acoustic startle reflex amplitude. Rats perceiving tinnitus in a specific frequency have decreased detection of gap embedded in bands similar to the tinnitus frequency. Reduction of the gating efficiency of the gap produces a larger acoustic startle (reduced GPIAS). The level of GPIAS is measured in baseline condition in a cohort of 6 to 8 adult rats. Tinnitus is induced by an i.p administration of sodium salicylate (250 mg/kg) and GPIAS is measured at […] post-induction to measure the reduction in GPIAS (attesting presence of tinnitus). Rats are treated with H4R antagonists (single i.p. administration) or with the vehicle the same day and GPIAS is measured at different time points according to the PK profile of the compounds Alternatively, tinnitus is induced by a unilateral exposure to a 12 kHz narrow band noise presented at 120-126 dB SPL (the contralateral ear is protected with an ear plug) for 2h. […]

[3] = test system: spiral ganglion neurons (SGNs) in semi-intact cochlea preparation; assay: Loose-patch recordings of spontaneous action potentials in semi-intact cochlea preparation; type: cell-based, Wistar rats; details: 100 μM bath application, within two minutes, two experiments
Procedure: For this preparation postnatal day (P) 10-14 Wistar rats were used. First steps of the protocol were similar to the cell culture one until the cochlea was freed from the cochlear bone. Cochlear turns (apical and middle) were dissected and isolated in sterile-filtered L-15 (Leibovitz) Medium. Explants were plated upside down (spiral ganglion neurons on top) on 10 μl of growth factor-reduced Matrigel (BD biosciences) and laminin (10 μg/ml)-coated glass coverslips. These preparations were first incubated for 30 min at 37° C. in a 95%/5% 02/CO2 atmosphere and then cultured for 2 to 5 days in vitro in (50%) F12/(50%) DMEM (Invitrogen) supplemented with (2%) N2 nutrient (Fisher Scientific). […]
All experiments were performed using an Axopatch 200B amplifier. […] Data were stored with PClamp10.2 software (Axon Instruments; Molecular Devices Corp., USA) and were analyzed off-line using Clampfit 10.2 (Molecular Devices) and Origin 8 (OriginLab) softwares.
The recording solution contained (in mM): NaCl 135, HEPES 10, glucose 10, MgCl2 1, KCl 5, and CaCl2 2.5, (pH 7.35). […] For these solutions a minor 3.7 mV liquid junction potential could be measured but membrane voltages were not corrected for it. […]
In these semi-intact cochlea preparations, spontaneous discharges of action potential were directly recorded. […] In vitro results were expressed as means±S.E.M. […]

human H3 receptor = target: T1, human H3 receptor (Homo sapiens, UniProt Q9Y5N1); details: radioligand binding; cited from earlier work
T1 construct: expressed in transfected cells; host or cells: SK-N-MC or HEK293 T
T1 sequence (Q9Y5N1 whole entry): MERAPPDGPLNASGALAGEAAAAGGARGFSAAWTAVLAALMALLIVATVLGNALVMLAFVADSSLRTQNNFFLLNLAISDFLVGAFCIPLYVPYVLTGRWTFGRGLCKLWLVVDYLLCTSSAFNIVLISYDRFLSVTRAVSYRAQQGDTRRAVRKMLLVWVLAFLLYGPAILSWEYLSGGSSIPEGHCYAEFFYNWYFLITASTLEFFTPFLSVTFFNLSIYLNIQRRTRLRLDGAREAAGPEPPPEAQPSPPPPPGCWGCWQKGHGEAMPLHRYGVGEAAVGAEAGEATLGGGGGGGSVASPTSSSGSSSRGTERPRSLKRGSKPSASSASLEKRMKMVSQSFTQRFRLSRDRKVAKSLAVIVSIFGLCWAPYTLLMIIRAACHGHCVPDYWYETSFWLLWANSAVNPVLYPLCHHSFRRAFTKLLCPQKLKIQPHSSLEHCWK

| Compound | inhibition at 0.1 µM ([1]; sustained SGNs) | inhibition at 100 µM ([1]; sustained SGNs) | resting membrane potential, difference versus control ([1]; sustained SGNs) | amplitude of the first spike [1] | frequency of spikes and amplitude of the first spike [1] | GPIAS values [2] | resting membrane potential, increase versus control ([1]; sustained SGNs, high concentration (100 μM)) | spontaneous (synaptically driven) action potential discharge [3] | Kd (human H3 receptor) |
| --- | --- | --- | --- | --- | --- | --- | --- | --- | --- |
| CN1CCN(C(=O)c2cc3cc(Cl)ccc3[nH]2)CC1 [JNJ7777120, 1-[(5-chloro-1H-indol-2-yl)carbonyl]-4-methylpiperazine] | 21.6 ± 1.7% | 69 ± 8% | 0.55±0.2 mV | 73.3±6.1 mV | unaffected | Increase |  |  |  |
| CN1CCN(C(=O)c2nc3cc(Cl)ccc3[nH]2)CC1 [JNJ10191584, 1-[(5-chloro-1H-benzimidazol-2-yl)carbonyl]-4-methylpiperazine] | 25.2 ± 2% | 46.2 ± 12% | −0.13±0.4 mV | 83.7±5.2 mV | unaffected | Increase | 1.5±1 mV | fully abolished |  |
| CNCCc1cnc[nH]1 [[^3H]N-a-methyl histamine] |  |  |  |  |  |  |  |  | 1 nM |
